Nine molecules from PubChem BioAssay (NCI) can be followed below.

Common to all, as to test: NCI anticancer screen, dose series, 48 h
In assay [1] the test system is ACHN renal.
The test system of assay [2] is HT29 colon.
The subject of assay [3] is IGROV1 ovarian.
The test system of assay [4] is LOX IMVI melanoma.
The subject of assay [5] is NCI-H226 lung.
The subject of assay [6] is OVCAR-8 ovarian.
Assay [7] concerns SF-268 CNS.
Assay [8] concerns SK-MEL-5 melanoma.
Assay [9] deals with SR leukemia.
Assay [10] has as its system U251 CNS.

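Growth conditions: 96-well plates. Treatment: test compound, 48 hours, 5 concentrations. Analysis: linear interpolation between bracketing concentrations; unreached endpoints set to highest concentration. GI50: concentration for 50% inhibition of growth. TGI denotes the concentration required for complete inhibition of growth.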

Turning to `Cc1ccc(C)c(NC(=O)C(=O)Nn2c(=S)[nH]c3ccccc3c2=O)c1`, the TGI in assay [1], in assay [2], in assay [3], in assay [4], in assay [5] and in assay [6] was > 100 µM each time. The TGI in [7], in assay [8], in assay [9] and in [10] was > 100 µM throughout.
`C[C@H]1CC[C@@H]2[C@@H](C)[C@H]3[C@H](C[C@H]4[C@@H]5CC=C6C[C@@H](O)CC[C@]6(C)[C@H]5CC[C@]34C)N2C1`: the TGI in assay [1] is > 100 µM; in assay [2], 43 µM; in [3], > 100 µM; in assay [4] it was > 100 µM; in assay [5], > 100 µM; in assay [6] it was > 100 µM. The TGI is > 100 µM in [7], > 100 µM in [8], 56.1 µM in assay [9] and > 100 µM in assay [10].
For `COc1cc2c(=O)n(CC3CCCCC3)c3c4cc[nH]c4ncc3c2cc1OC`, the GI50 in [1] was 2.16 µM; in assay [2] it was 2.85 µM; in [3] it was 0.891 µM; in [4], 2.3 µM; in assay [5] it was 0.0556 µM; in assay [6], 5 µM. Besides, the GI50 in assay [7] was 1.4 µM; in assay [8], 4.37 µM; in [9], 0.313 µM; in assay [10], 4.85 µM. The TGI in assay [1] is 10.4 µM; in assay [2], 15.2 µM; in assay [3], 13.8 µM; in [4], 14.3 µM; in [5] it was 17.2 µM; in [6] it was > 50 µM. Also, the TGI is 13.9 µM in assay [7], 25.9 µM in [8], > 50 µM in assay [9] and 15.7 µM in assay [10].
For `COC(=O)C(/C(=N\O)C(=O)Nc1ccc(Br)cc1)c1nc2ccccc2[nH]c1=O` (stereo not given), the TGI is > 100 µM in [1]; > 100 µM in [2]; 71.4 µM in [3]; 41.6 µM in assay [4]; 71.9 µM in assay [5]; > 100 µM in [6]. Moreover, the TGI was > 100 µM in [7], 68.2 µM in assay [8], 40.5 µM in [9] and > 100 µM in assay [10].
As to `NC(=O)c1nc(-c2ccc(Cl)c(Cl)c2)nc2ccccc12`, the TGI in assay [1] was > 100 µM; in assay [2], > 100 µM; in [3], > 100 µM; in assay [4], > 100 µM; in assay [5] it was > 100 µM; in [6] it was > 21.8 µM. The TGI in assay [7], in assay [8], in [9] and in assay [10] was > 100 µM each time.
Turning to `C=CCO[C@H]1CC[C@@]2(C)C(CC[C@]3(C)C2CC=C2[C@@H]4[C@@H](C)C(C)CC[C@]4(C(=O)O)CCC23C)C1(C)C` (stereo not given in full), the TGI came to 29.8 µM in [1]; 31.6 µM in [2]; 33.9 µM in assay [3]; 27.2 µM in assay [4]; 39.6 µM in assay [5]; 36.6 µM in assay [6]. The TGI in [7] amounted to 40.5 µM; in assay [8], 31.8 µM; in [9], 36.2 µM; in assay [10], 30.3 µM.
Regarding `CNC(=O)c1cc(-c2ccc(F)cc2)cc(-c2ccc(S(=O)(=O)N3CCCC3)cc2)c1N`, the GI50 in [1] is 21.5 µM; in assay [2], 15.7 µM; in assay [3], > 25 µM; in assay [4] it was > 25 µM; in [5] it was > 25 µM; in assay [6], > 25 µM. The GI50 was > 25 µM in assay [7], 12.9 µM in [8], > 25 µM in assay [9] and 15.1 µM in [10]. Moreover, the TGI in assay [1], in assay [2], in assay [3], in assay [4], in [5] and in [6] was > 25 µM in each case. Further, the TGI in [7], in assay [8], in assay [9] and in assay [10] was > 25 µM each time.
In the case of `COC(=O)C#CC(N)=O`, the TGI in assay [1] is > 100 µM; in assay [2], > 100 µM; in assay [3], > 100 µM; in [4] it was > 50.4 µM; in assay [5], > 100 µM; in assay [6], > 94.9 µM. In addition, the TGI in [7] is > 100 µM; in [8] it was > 100 µM; in assay [9], 60.7 µM; in assay [10], > 100 µM.
Consider `CS(=O)(=O)CCNCc1ccoc1-c1ccc2ncnc(Nc3ccc(OCc4ccccc4)cc3)c2c1`, for which the GI50 in assay [1] was > 25 µM; in assay [2], 9.55 µM; in assay [3], > 17 µM; in assay [4] it was > 25 µM; in assay [5] it was > 25 µM; in assay [6] it was > 25 µM. The GI50 is > 25 µM in assay [7], 9.74 µM in assay [8], > 16.9 µM in assay [9] and > 25 µM in assay [10]. Moreover, the TGI in assay [1], in [2], in assay [3], in assay [4], in [5] and in [6] was > 25 µM throughout. In addition, the TGI in assay [7], in assay [8], in assay [9] and in assay [10] was > 25 µM throughout.
